Assay results published in US10501493B2, “Broad spectrum antibiotics” (priority 2011, dated 2019).
≈ marks a conversion by molar mass, not a printed value. Read-outs that look alike come from different tables or passages of the source.

What was measured:
S. pneumoniae D39 = experiment: In vitro antimicrobial activity, MIC by broth micro-dilution; assay type: cell-based; conditions: S. pneumoniae D39
S. aureus ATCC 29213 = experiment: as above; assay type: cell-based
[1] = test system: S. epidermidis ATCC 12228; experiment: as above; assay type: cell-based
S. pneumoniae R800 = experiment: as above; assay type: cell-based
Outline: (§1)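 CLSI broth micro-dilution MIC against two-fold serial compound dilutions. Inoculum came from colonies grown 24 h at 35° C. or 28° C., suspended in cation-adjusted Mueller Hinton broth at 1*10^7 CFU/ml, of which 5 μl was added per 100 μl well. LepB(P84L) is a proline-mutant SPase strain with heightened arylomycin susceptibility.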

[2] = test system: E. coli MIG1655 LepB(P84L); experiment: as above; assay type: cell-based
Outline: as §1

S. agalactiae COH-1 = experiment: as above; assay type: cell-based; conditions: S. agalactiae COH-1
S. agalactiae ATCC 13813 = experiment: as above; assay type: cell-based
[3] = test system: S. aureus NCTC-8325 SpsB(P295); experiment: as above; assay type: cell-based
P. aeruginosa PA01 = experiment: as above; assay type: cell-based
Outline: as §1

R. equi DSM 6939 = experiment: as above; assay type: cell-based
Outline: as §1

[4] = test system: S. epidermidis RP62A SpsIB(S29P); experiment: as above; assay type: cell-based
[5] = test system: S. epidermidis RP62A SpsIB(S31P); experiment: as above; assay type: cell-based
[6] = test system: P. aeruginosa PA01 LepB(P84L); experiment: as above; assay type: cell-based
Outline: as §1

C. glutamicum DSM 44475 = experiment: as above; assay type: cell-based
S. epidermidis RP62A = experiment: as above; assay type: cell-based; conditions: S. epidermidis RP62A
E. coli MIG1655 = experiment: as above; assay type: cell-based
Outline: as §1

S. pyogenes ATCC 19615 = experiment: as above; assay type: cell-based
S. pyogenes M15448 = experiment: as above; assay type: cell-based; conditions: S. pyogenes M15448
Outline: as §1

S. aureus SPase = target: T1, S. aureus SPase (Staphylococcus aureus, UniProt P0A070); experiment: Steady state binding constant (Kd) determination by fluorescence increase
T1 construct: Full length His-tagged S. aureus SPase protein was expressed similarly; His-tag; made in house; host or cells: E. coli BL21(DE3)
Description: (§2) Full length His-tagged E. coli SPase proteins were expressed in E. coli BL21(DE3) containing the plasmid pET23-lepB, P. A. Smith et al. Chem Biol 2010, 1223-1231. Briefly, saturated overnight cultures grown in 20 ml of Luria-Bertani medium supplemented with ampicillin were subcultures into 1.5 L of Luria-Bertani, and shaken at 37° C. until an optical density at 600 nm of 0.4-0.5 was achieved. Protein expression was induced with Isopropyl β-D-1-thiogalactopyranoside (ITPG) at a final concentration of […], and purified using nickel affinity chromatography. Full length His-tagged S. aureus SPase protein was expressed similarly from E. coli BL21(DE3) containing the plasmid pCDF1-SaSpsB or pCDF1-SaSpsB(P29S) and purified similarly to the E. coli protein with the following exceptions. SPase protein was solubilized using 300 mM NaCl, 20 mM Tris pH 8.06, 5 mM Imidazole, 10% glycerol, 1% Triton X-100, prior to purification in Ni-NTA Superflow resin and resin bound protein was washed in a similar buffer containing 1% Elugent in place of Triton X-100 prior to protein eluted in wash buffer supplemented with 300 mM imidazole. Protein purify was judged to exceed 95% by visual inspection of SDS-PAGE followed by Comassie staining. All protein concentrations were determined by BCA assay.
(§3) Steady state binding constants (Kds) of compounds were determined by measuring an increase in fluorescence (λex=280 nm, λem=405 nm) that occurs upon binding to E. coli or S. aureus SPase protein. Two-fold serial dilutions of compounds were prepared in 100% DMSO, and compounds were diluted into binding buffer consisting of 100 mM NaCl, 20 mM Tris-HCl pH 7.4, 1 mM EDTA, 1% n-octyl-3-glucopyranoside (Anatrace), and 10% glycerol, with the final DMSO concentration equal to 1%. 70 μl of the resulting solutions containing various concentrations of compound in binding buffer were aliquoted into triplicate wells of a black polystyrene 384-well plate. 5 μl of blank solution or E. coli or S. aureus protein at concentrations of 750 or 3750 nM respectively, were added to each set of wells for a given inhibitor concentration. Plates were incubated for 14 hours and fluorescence read on an EnVision Multilable plate reader (Perkin Elmer™). Differences in fluorescence values between wells with and without protein were determined and background corrected for protein auto fluorescence. The corrected fluorescence difference data was fit to the quadratic equilibrium binding curve using the non-linear regression analysis software Solver (Frontline Systems®) run in Excel 2010, (Microsoft®), using experimentally determined quantum efficiency constants to convert fluorescence into nanomoles of protein/compound complex.

E. coli SPase = target: T2, E. coli SPase (Escherichia coli, UniProt P00803); experiment: as above
T2 construct: Full length His-tagged E. coli SPase proteins were expressed in E. coli BL21(DE3); His-tag; made in house; host or cells: E. coli BL21(DE3)
Description: as §2, §3

[7] = Streptococcus pneumoniae, read-out: MIC
[8] = Staphylococcus aureus, ATCC29213, read-out: MIC
[9] = Staphylococcus epidermidis, ATCC12228, read-out: MIC
[10] = Streptococcus agalactiae, COH1, read-out: MIC
[11] = Streptococcus agalactiae, ATCC13813, read-out: MIC
[12] = Staphylococcus aureus, NCTC8325
[13] = Corynebacterium glutamicum, DSM44475, read-out: MIC
[14] = Staphylococcus epidermidis, read-out: MIC
[15] = Streptococcus pyogenes, ATCC19615, read-out: MIC
[16] = Streptococcus pyogenes, read-out: MIC
[17] = Pseudomonas aeruginosa, read-out: MIC
[18] = Rhodococcus (subgen. Prescottella) equi, DSM6939, read-out: MIC

Structure (SMILES)	Kd (S. aureus SPase) [µM]	Kd (E. coli SPase) [µM]	MIC (S. pneumoniae D39; [7]) [µg/mL]	MIC (S. aureus ATCC 29213; [8]) [µg/mL]	MIC [1, 9] [µg/mL]	MIC (S. pneumoniae R800; [7]) [µg/mL]	MIC ([2]; Escherichia coli) [µg/mL]	MIC (S. agalactiae COH-1; [10]) [µg/mL]	MIC (S. agalactiae ATCC 13813; [11]) [µg/mL]	MIC [3, 12] [µg/mL]	MIC ([4]; Staphylococcus epidermidis) [µg/mL]	MIC ([5]; Staphylococcus epidermidis) [µg/mL]	MIC ([6]; Pseudomonas aeruginosa) [µg/mL]	MIC (C. glutamicum DSM 44475; [13]) [µg/mL]	MIC (S. epidermidis RP62A; [14]) [µg/mL]	MIC (S. pyogenes ATCC 19615; [15]) [µg/mL]	MIC (S. pyogenes M15448; [16]) [µg/mL]	MIC (P. aeruginosa PA01; [17]) [µg/mL]	MIC (R. equi DSM 6939; [18]) [µg/mL]	MIC (E. coli MIG1655; Escherichia coli, MIG1655) [µg/mL]	also measured
CCCCCCCCCCCCCCCC(=O)N[C@H](CC(N)=O)C(=O)N[C@H](C)C(=O)NCC(=O)N(C)[C@@H]1C(=O)N[C@@H](C)C(=O)N[C@H](C(=O)O)Cc2ccc(O)c(c2)-c2cc1ccc2O [Compound 34]																					MIC (S. pneumoniae D39): >64 µg/mL; MIC (S. aureus ATCC 29213): >64 µg/mL; MIC [1]: >64 µg/mL; MIC (S. pneumoniae R800): >64 µg/mL; MIC ([2]; E. coli MIG1655 LepB(P84L)): >64 µg/mL; MIC (S. agalactiae COH-1): >64 µg/mL; MIC (S. agalactiae ATCC 13813): >64 µg/mL; MIC ([3]; S. aureus NCTC-8325 SpsB(P295)): >64 µg/mL; MIC (P. aeruginosa PA01): >64 µg/mL; MIC (R. equi DSM 6939): >64 µg/mL; MIC ([4]; S. epidermidis RP62A SpsIB(S29P)): >64 µg/mL; MIC ([5]; S. epidermidis RP62A SpsIB(S31P)): >64 µg/mL; MIC ([6]; P. aeruginosa PA01 LepB(P84L)): >64 µg/mL; MIC (C. glutamicum DSM 44475): >64 µg/mL; MIC (S. epidermidis RP62A): >64 µg/mL; MIC (E. coli MIG1655; E. coli MIG1655): >64 µg/mL; MIC (S. pyogenes ATCC 19615): >64 µg/mL; MIC (S. pyogenes M15448): >64 µg/mL
CCCCCCCCCCCCCCCC(=O)N(C)[C@H](CO)C(=O)N[C@H](C)C(=O)NCC(=O)N(C)[C@@H]1C(=O)N[C@@H](C)C(=O)N[C@H](C(=O)N[C@@H](C)C(=O)O)Cc2ccc(O)c(c2)-c2cc1ccc2O [Compound 20]	7.8	12	16 (≈ 16.8 µM)	> 64	32 (≈ 33.6 µM)	32 (≈ 33.6 µM)	32 (≈ 33.6 µM)	> 64	32 (≈ 33.6 µM)	> 64	32 (≈ 33.6 µM)	> 64	> 64	64 (≈ 67.2 µM)	4 (≈ 4.2 µM)	32 (≈ 33.6 µM)	64 (≈ 67.2 µM)				
CCCCCCCCCCCCCCCC(=O)N(C)[C@H](CO)C(=O)N[C@H](C)C(=O)NCC(=O)N(C)[C@@H]1C(=O)N[C@@H](C)C(=O)N[C@H](C(=O)NC(C)C=O)Cc2ccc(O)c(c2)-c2cc1ccc2O (stereo partly shown) [Compound 33]			32 (≈ 34.2 µM)	> 64	> 64	32 (≈ 34.2 µM)	64 (≈ 68.4 µM)	64 (≈ 68.4 µM)	> 64	64 (≈ 68.4 µM)	64 (≈ 68.4 µM)	64 (≈ 68.4 µM)	> 64	64 (≈ 68.4 µM)	64 (≈ 68.4 µM)	16 (≈ 17.1 µM)	16 (≈ 17.1 µM)	> 64	64 (≈ 68.4 µM)	> 64	
CCCCCCCCCCCCCCCC(=O)N(C)[C@H](CO)C(=O)N[C@H](C)C(=O)NCC(=O)N(C)[C@@H]1C(=O)N[C@@H](C)C(=O)N[C@H](C(=O)O)Cc2ccc(O)c(c2)-c2cc1ccc2O [Compound 1, arylomycin C16]	0.75	0.075	4 (≈ 4.54 µM)	> 64	2 (≈ 2.27 µM)	8 (≈ 9.08 µM)	1 (≈ 1.13 µM)	> 64	16 (≈ 18.2 µM)	4 (≈ 4.54 µM)	8 (≈ 9.08 µM)	> 64	8 (≈ 9.08 µM)	8 (≈ 9.08 µM)	0.3 (≈ 0.34 µM)	16 (≈ 18.2 µM)	16 (≈ 18.2 µM)	> 64	16 (≈ 18.2 µM)	> 64	
